From DBAASP
≈ marks a conversion by molar mass, not a printed value. Blank lines part the entries; values can stand above or below the molecule they belong to.

What was measured:
Test in all cases: ≥ marks a high value that may be exact or a test limit, other limits are often not marked, values filed in µg/mL are converted to µM
Bacillus cereus AS1.126 = system: Bacillus cereus AS1.126
[1] = system: Enterobacter cloacae CGMCC 1.58
[2] = system: Enterococcus faecalis CGMCC 1.595
[3] = system: Enterococcus faecium CGMCC 1.2334
Escherichia coli AS1.349 = system: Escherichia coli AS1.349
[4] = system: Klebsiella aerogenes CGMCC 1.876
[5] = system: Klebsiella pneumoniae subsp. pneumoniae CGMCC 1.176
[6] = system: Lactococcus lactis AS1.1690
[7] = system: Pseudomonas aeruginosa CGMCC 1.860
[8] = system: Staphylococcus aureus AS1.72
[9] = system: Escherichia coli ATCC 11775
[10] = system: Escherichia coli ATCC 25922
[11] = system: Escherichia coli ATCC 43827
[12] = system: Pseudomonas aeruginosa ATCC 27853
[13] = system: Staphylococcus aureus ATCC 25923
[14] = system: Enterococcus faecalis ATCC 29212
[15] = system: Bacillus subtilis ATCC 6633
[16] = system: Escherichia coli ATCC 10536
[17] = system: Escherichia coli DH5alpha
[18] = system: Klebsiella pneumoniae ATCC 27736
[19] = system: Pseudomonas aeruginosa ATCC BAA-427
[20] = system: Staphylococcus aureus ATCC 9144
Escherichia coli ESBL = system: Escherichia coli ESBL
Klebsiella pneumoniae = system: Klebsiella pneumoniae
[21] = system: Acinetobacter baumannii ATCC 19606
[22] = system: Bordetella bronchiseptica CUN 11844-99
[23] = system: Brucella abortus 9.49 (per-)
[24] = system: Escherichia coli ATCC 23716
[25] = system: Pseudomonas aeruginosa CUN 4158-02
[26] = system: Staphylococcus aureus ATCC 43300
Yersinia pestis KIM pYV = system: Yersinia pestis KIM pYV
[27] = system: Escherichia coli NBRC 14237
[28] = system: Micrococcus luteus NBRC 12708
[29] = system: Pseudomonas aeruginosa NBRC 12582
[30] = system: Staphylococcus aureus NBRC 12732
[31] = system: Bacillus subtilis ATCC 19659
[32] = system: Candida albicans ATCC 90028
Candida krusei ATCC 6258 = system: Candida krusei ATCC 6258
[33] = system: Candida parapsilosis ATCC 22019

Structure (SMILES): NC(N)=NCCC[C@H](NC(=O)[C@H](CCCN=C(N)N)NC(=O)[C@H](Cc1c[nH]c2ccccc12)NC(=O)[C@H](Cc1ccccc1)NC(=O)[C@H](CCCN=C(N)N)NC(=O)[C@H](CCCN=C(N)N)NC(=O)[C@H](Cc1c[nH]c2ccccc12)NC(=O)[C@@H](N)CCCN=C(N)N)C(=O)O [RWRRFWRR]
MIC (Bacillus cereus AS1.126): 3.13 µM (≈ 4.13 µg/mL)
MIC [1]: ≥ 100 µM
MIC [2]: 12.5 µM (≈ 16.5 µg/mL)
MIC [3]: 12.5 µM (≈ 16.5 µg/mL)
MIC (Escherichia coli AS1.349): ≥ 50 µM
MIC [4]: ≥ 100 µM
MIC [5]: ≥ 100 µM
MIC [6]: 6.25 µM (≈ 8.24 µg/mL)
MIC [7]: 6.25 µM (≈ 8.24 µg/mL)
MIC [8]: 6.25 µM (≈ 8.24 µg/mL)

Structure (SMILES): CSCC[C@H](NC(=O)[C@H](CCCN=C(N)N)NC(=O)[C@H](Cc1c[nH]c2ccccc12)NC(=O)[C@H](CCC(N)=O)NC(=O)[C@H](Cc1c[nH]c2ccccc12)NC(=O)[C@H](CCCN=C(N)N)NC(=O)[C@@H](N)CCCN=C(N)N)C(=O)N[C@@H](CCCCN)C(=O)N[C@@H](CCCCN)C(=O)N[C@@H](CC(C)C)C(=O)NCC(=O)O [RRWQWRMKKLG]
MIC [9]: 15 µM (≈ 23.2 µg/mL)
MIC [10]: 15 µM (≈ 23.2 µg/mL)
MIC [11]: 7 µM (≈ 10.8 µg/mL)
MIC [12]: 15 µM (≈ 23.2 µg/mL)
MIC [13]: 30 µM (≈ 46.3 µg/mL)

Structure (SMILES): CC[C@H](C)[C@H](N)C(=O)N[C@@H](CO)C(=O)N[C@@H](CCCCN)C(=O)N[C@@H](CCCN=C(N)N)C(=O)N[C@H](C(=O)N[C@@H](CC(C)C)C(=O)N[C@H](C(=O)NCC(=O)N[C@@H](CCCCN)C(=O)N[C@@H](CCCCN)C(N)=O)[C@@H](C)O)[C@@H](C)CC [ISKRILTGKK]
MIC [21]: > 224 µM
MIC [22]: ≥ 224 µM
MIC [23]: ≥ 56 µM
MIC [24]: ≥ 224 µM
MIC [10]: > 224 µM
MIC [25]: ≥ 224 µM
MIC [26]: > 224 µM
MIC (Yersinia pestis KIM pYV): ≥ 224 µM

Structure (SMILES): CC[C@H](C)[C@H](NC(=O)CNC(=O)[C@H](C)NC(=O)[C@H](CC(C)C)NC(=O)[C@H](CC(C)C)NC(=O)CNC(=O)[C@@H]1CCCN1C(=O)[C@H](CC(C)C)NC(=O)[C@H](CC(C)C)NC(=O)[C@H](CC(N)=O)NC(=O)[C@H](CC(C)C)NC(=O)[C@H](CC(C)C)NC(=O)[C@@H](N)CCCCN)C(=O)N[C@@H](Cc1ccccc1)C(N)=O [KLLNLLPGLLAGIF]
MIC [27]: 12.5 µM (≈ 18.5 µg/mL)
MIC [28]: 25 µM (≈ 37 µg/mL)
MIC [29]: ≥ 50 µM
MIC [30]: 12.5 µM (≈ 18.5 µg/mL)

Now from value to molecule:

MIC [14]: 48 µM (≈ 94.2 µg/mL)
MIC [9]: ≥ 48 µM
MIC [10]: 24 µM (≈ 47.1 µg/mL)
MIC [11]: 12 µM (≈ 23.5 µg/mL)
MIC [12]: 48 µM (≈ 94.2 µg/mL)
MIC [13]: 48 µM (≈ 94.2 µg/mL)
Structure (SMILES): CSCC[C@H](NC(=O)[C@H](CCCN=C(N)N)NC(=O)[C@H](Cc1c[nH]c2ccccc12)NC(=O)[C@H](CCC(N)=O)NC(=O)[C@H](Cc1c[nH]c2ccccc12)NC(=O)[C@H](CCCN=C(N)N)NC(=O)[C@H](CCCN=C(N)N)NC(=O)[C@H](C)NC(=O)[C@H](CCCCN)NC(=O)[C@@H](N)Cc1ccccc1)C(=O)N[C@@H](CCCCN)C(=O)N[C@@H](CCCCN)C(=O)N[C@@H](CC(C)C)C(=O)NCC(=O)N[C@@H](C)C(=O)O [FKARRWQWRMKKLGA]

MIC [15]: 2.5 µM (≈ 7.01 µg/mL)
MIC [16]: 3.3 µM (≈ 9.25 µg/mL)
MIC [17]: 3.5 µM (≈ 9.82 µg/mL)
MIC [18]: 2.1 µM (≈ 5.89 µg/mL)
MIC [19]: 12 µM (≈ 33.7 µg/mL)
MIC [20]: 3 µM (≈ 8.41 µg/mL)
Structure (SMILES): CC[C@H](C)[C@H](NC(=O)CN)C(=O)NCC(=O)N[C@@H](C)C(=O)N[C@H](C(=O)N[C@H](C(=O)N[C@@H](CCCCN)C(=O)N[C@H](C(=O)N[C@@H](CC(C)C)C(=O)N[C@H](C(=O)N[C@H](C(=O)NCC(=O)N[C@H](C(=O)N1CCC[C@H]1C(=O)N[C@@H](C)C(=O)N[C@H](C(=O)N[C@H](C(=O)N[C@@H](CO)C(=O)N[C@@H](Cc1c[nH]c2ccccc12)C(=O)N[C@H](C(=O)N[C@@H](CCCCN)C(=O)N[C@@H](CCCN=C(N)N)C(=O)N[C@@H](CCCCN)C(=O)N[C@@H](CCCN=C(N)N)C(=O)N[C@@H](CCC(N)=O)C(=O)N[C@@H](CCC(N)=O)C(N)=O)[C@@H](C)CC)[C@@H](C)CC)C(C)C)C(C)C)[C@@H](C)O)[C@@H](C)O)C(C)C)C(C)C)C(C)C [GIGAVVKVLTTGVPAVISWIKRKRQQ]

MIC (Escherichia coli ESBL): 4.67 µM (≈ 11.3 µg/mL)
MIC (Klebsiella pneumoniae): 6.61 µM (≈ 16 µg/mL)
Structure (SMILES): CC(C)C[C@H](NC(=O)[C@H](CCCCN)NC(=O)CNC(=O)[C@H](CCCCN)NC(=O)[C@H](Cc1ccccc1)NC(=O)[C@H](CCCCN)NC(=O)[C@H](Cc1c[nH]c2ccccc12)NC(=O)[C@H](CCCN=C(N)N)NC(=O)[C@H](Cc1ccccc1)NC(=O)[C@H](CCCN=C(N)N)NC(=O)[C@H](CCCN=C(N)N)NC(=O)[C@H](Cc1ccc(O)cc1)NC(=O)[C@H](CO)NC(=O)[C@H](CCCCN)NC(=O)CN)C(=O)N[C@@H](Cc1ccccc1)C(=O)N[C@@H](CC(C)C)C(=O)N[C@@H](Cc1ccccc1)C(=O)NCC(N)=O [GKSYRRFRWKFKGKLFLFG]

MIC [31]: 4 µM (≈ 7.92 µg/mL)
MIC [32]: ≥ 32 µM
MIC (Candida krusei ATCC 6258): ≥ 125 µM
MIC [33]: ≥ 125 µM
MIC [10]: 128 µM (≈ 253 µg/mL)
MIC [12]: > 128 µM
MIC [13]: 4 µM (≈ 7.92 µg/mL)
Structure (SMILES): CC[C@H](C)[C@H](NC(C)=O)C(=O)N[C@@H](Cc1ccccc1)C(=O)NCC(=O)N[C@@H](C)C(=O)N[C@H](C(=O)N[C@@H](Cc1c[nH]c2ccccc12)C(=O)N1CCC[C@H]1C(=O)N[C@@H](CC(C)C)C(=O)N[C@@H](C)C(=O)N[C@@H](CC(C)C)C(=O)NCC(=O)N[C@@H](C)C(=O)N[C@@H](CC(C)C)C(=O)N[C@@H](CCCCN)C(=O)N[C@@H](CC(N)=O)C(=O)N[C@@H](CC(C)C)C(=O)N[C@H](C(=O)N[C@@H](CCCCN)C(N)=O)[C@@H](C)CC)[C@@H](C)CC [IFGAIWPLALGALKNLIK]
